The record followed here is US12134610B2, “Somatostatin subtype-2 receptor (SST2R) targeted therapeutics and uses thereof” (priority 2022, dated 2024).

pEC50: −log10 of the molar value. Starred links: 1 amine or outer side, 2 acyl side, 3 side chain; linkers in the order of their positions; H or OH if unused. Non-standard residues stand in square brackets, D forms with d. Residues, ends and D or L forms follow the SMILES beside them. *: point of attachment. X4 = Cc1cc(F)cc(-c2cnc(NCCNC(=O)CCOCCOCCOCCOCCC(=O)*)c(-c3nc4ccc(Cl)cc4[nH]3)c2N2CCC(N)CC2)c1; X1 = Cc1cc(F)cc(-c2cnc(NCCNC(=O)CCOCCC(=O)*)c(-c3nc4ccc(Cl)cc4[nH]3)c2N2CCC(N)CC2)c1; Dolaproine = CO[C@@H]([C@@H]1CCCN1)[C@@H](C)C(=O)O; Dil = CC[C@H](C)[C@H](NC)[C@@H](CC(=O)O)OC; PABC = O=C(OCc1ccc(N[*:1])cc1)[*:2]; X2 = C[C@@H](N*)[C@@H](O)c1ccccc1; Cya = N[C@@H](CS(=O)(=O)O)C(=O)O; Cit = NC(=O)NCCC[C@H](N)C(=O)O; NMeV = CN[C@H](C(=O)O)C(C)C Some results are limits rather than exact numbers.

Assay type in all cases: cell-based
For one assay, the target named is T1, SST2 (Homo sapiens, UniProt P30874).
T1 construct: host or cells: PathHunter CHO-K1 SST2 cells
T1 sequence (P30874 whole entry): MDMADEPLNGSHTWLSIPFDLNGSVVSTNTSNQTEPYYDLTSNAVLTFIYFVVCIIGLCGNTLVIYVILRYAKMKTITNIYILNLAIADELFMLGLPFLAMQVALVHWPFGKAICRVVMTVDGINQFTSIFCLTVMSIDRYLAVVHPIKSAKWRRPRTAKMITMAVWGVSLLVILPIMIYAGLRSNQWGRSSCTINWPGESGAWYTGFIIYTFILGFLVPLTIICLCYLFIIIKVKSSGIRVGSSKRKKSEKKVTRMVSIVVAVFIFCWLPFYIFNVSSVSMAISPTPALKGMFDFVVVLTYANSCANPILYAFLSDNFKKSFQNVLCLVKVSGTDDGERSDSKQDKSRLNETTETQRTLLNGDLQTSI
Nature of the assay: PathHunter CHO-K1 SST2 internalization assay. The conditions noted are these: PathHunter CHO-K1 SST2, 90 min; read-out: Internalization EC50. A digest of the protocol: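 IC50 comes from four-parameter curves on background-corrected duplicates of Beta-Glo luminescence, read after 60 min at room temperature in the dark. Before that, CHO-K1 SST2 internalization cells (48 h post-seeding) received SMDC as eleven threefold dilutions, 10 uM highest final, for 90 min at 37 C.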

Assay [1] relates to NCI-H524 (ATCC) human small cell lung cancer cells. The settings on record: 2 h. An outline of the steps: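 CellTiter-Glo luminescence after a 2 h SMDC pulse (top dose 1 uM, 2-fold dilutions, 11 points), medium wash, then 70 h recovery. Cells were seeded at 5,000/well and dosed 24 h later. % inhibition vs control gave IC50 via four-parameter fit.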
Assay [2] deals with T2, human somatostatin receptor subtype 2 (Homo sapiens, UniProt P30874).
T2 construct: expressed in transfected cells
T2 sequence (P30874 whole entry): as above
Nature of the assay: Functional cAMP assay for SSTR2 agonists (HTRF) in CHO-K1 cells. The conditions noted are these: CHO-K1 cells stably expressing human SST2, 20 min; read-out: hSST2 cAMP Avg EC50. An outline of the steps:
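Agonism scored as loss of NKH477 (1.6 μM)-driven cAMP, with IBMX present, after 20 min, 37° C. exposure of stably transfected CHO-K1 cells to compound dilutions (typically 0-10,000 nM). Lysates read by time-resolved FRET; cAMP interpolated from standard curve and EC50 derived.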
(cAMP levels reflect the balance of adenylyl cyclase and phosphodiesterase activity.)

For the compound `CC[C@H](C)[C@@H]([C@@H](CC(=O)N1CCC[C@H]1[C@H](OC)[C@@H](C)C(=O)N[C@H](C)[C@@H](O)c1ccccc1)OC)N(C)C(=O)[C@@H](NC(=O)[C@H](C(C)C)N(C)C(=O)OCc1ccc(NC(=O)[C@H](CCCNC(N)=O)NC(=O)[C@@H](NC(=O)[C@H](CS(=O)(=O)O)NC(=O)[C@H](CCC(=O)O)NC(=O)CCOCCC(=O)NCCNc2ncc(-c3cc(C)cc(F)c3)c(N3CCC(N)CC3)c2-c2nc3ccc(Cl)cc3[nH]2)C(C)C)cc1)C(C)C` [Compound 105] (X1-E[Cya]V[Cit][PABC][NMeV]V[Dil][Dolaproine]-X2), the pEC50 at SST2 was 7.85; in assay [1] it was 6.54; in assay [2], 9.74.

For the compound `Cc1cc(F)cc(-c2cnc(NCCNC(=O)CCOCCC(=O)NCCNC(=O)c3c(C)[nH]c(/C=C4\C(=O)Nc5ccc(F)cc54)c3C)c(-c3nc4ccc(Cl)cc4[nH]3)c2N2CCC(N)CC2)c1` [Compound 29, N-(2-{[4-(4-aminopiperidin-1-yl)-3-(6-chloro-1H-1,3-benzodiazol-2-yl)-5-(3-fluoro-5-methylphenyl)pyridin-2-yl]amino}ethyl)-3-[2-({2-[(5-{[(3Z)-5-fluoro-2-oxo-2,3-dihydro-1H-indol-3-ylidene]methyl}-2,4-dimethyl-1H-pyrrol-3-yl)formamido]ethyl}carbamoyl)ethoxy]propenamide], the pEC50 is 8.66 on SST2, below 5.00 in assay [1] and 10.19 in assay [2].

As for `CC[C@H](C)[C@@H]([C@@H](CC(=O)N1CCC[C@H]1[C@H](OC)[C@@H](C)C(=O)N[C@@H](Cc1ccccc1)C(=O)O)OC)N(C)C(=O)[C@@H](NC(=O)[C@H](C(C)C)N(C)C(=O)OCc1ccc(NC(=O)[C@H](CCCNC(N)=O)NC(=O)[C@@H](NC(=O)CCOCCOCCOCCOCCC(=O)NCCNc2ncc(-c3cc(C)cc(F)c3)c(N3CCC(N)CC3)c2-c2nc3ccc(Cl)cc3[nH]2)C(C)C)cc1)C(C)C` [Compound 42] (X4-V[Cit][PABC][NMeV]V[Dil][Dolaproine]F-OH), the pEC50 was 8.07 at SST2, 7.24 in assay [1] and 9.92 in assay [2].

In the case of `CC[C@H](C)[C@@H]([C@@H](CC(=O)N1CCC[C@H]1[C@H](OC)[C@@H](C)C(=O)N[C@H](C)[C@@H](O)c1ccccc1)OC)N(C)C(=O)[C@@H](NC(=O)[C@H](C(C)C)N(C)C(=O)OCc1ccc(NC(=O)[C@H](CCCNC(N)=O)NC(=O)[C@@H](NC(=O)[C@H](CS(=O)(=O)O)NC(=O)CCOCCC(=O)NCCNc2ncc(-c3cc(C)cc(F)c3)c(N3CCC(N)CC3)c2-c2nc3ccc(Cl)cc3[nH]2)C(C)C)cc1)C(C)C` [Compound 83] (X1-[Cya]V[Cit][PABC][NMeV]V[Dil][Dolaproine]-X2), the pEC50 was 8.54 at SST2, 7.70 in assay [1] and 9.96 in assay [2].

Regarding `COc1cc2cc(c1Cl)N(C)C(=O)CC(OC(=O)[C@@H](C)N(C)C(=O)CCSSCCNC(=O)CNC(=O)C[C@@H](N)C(=O)NCCNc1ncc(-c3cc(C)cc(F)c3)c(N3CCC(N)CC3)c1-c1nc3ccc(Cl)cc3[nH]1)[C@]1(C)OC1[C@@H](C)C1C[C@@](O)(NC(=O)O1)[C@H](OC)/C=C/C=C(\C)C2` (stereo partly drawn) [Compound 13], the pEC50 was 8.20 at SST2, 7.38 in assay [1] and 10.12 in assay [2].

`CC[C@H](C)[C@@H]([C@@H](CC(=O)N1CCC[C@H]1[C@H](OC)[C@@H](C)C(=O)N[C@H](C)[C@@H](O)c1ccccc1)OC)N(C)C(=O)[C@@H](NC(=O)[C@H](C(C)C)N(C)C(=O)OCc1ccc(NC(=O)[C@H](CCCNC(N)=O)NC(=O)[C@@H](NC(=O)[C@H](CCC(=O)O)NC(=O)CCOCCOCCOCCOCCC(=O)NCCNc2ncc(-c3cc(C)cc(F)c3)c(N3CCC(N)CC3)c2-c2nc3ccc(Cl)cc3[nH]2)C(C)C)cc1)C(C)C` [Compound 52]: the pEC50 is 8.04 at SST2, 7.32 in assay [1] and 9.62 in assay [2].

By pEC50 is commonly meant the EC50 on a negative log10 scale, so that one unit is a factor of ten.
